# Results: patent US11351142B2, “Composition and method for treating neuronal ceroid lipofuscinosis” (Rush University Medical Center, priority 2012, dated 2022)
# Columns and labels:
# TPP1 [1] = assay: Western blot and densitometric analysis of TPP1 in mouse primary astrocytes; assay type: cell-based
# Method: Astroglia were isolated from mixed glial cultures as described (17,18) according to the procedure of Giulian and Baker (19). Briefly, on day 9, the mixed glial cultures were washed three times with Dulbecco's modified Eagle's medium/F-12 and subjected to shaking at 240 rpm for 2 h at 37° C. on a rotary shaker to remove microglia. After 2 days, the shaking was repeated for 24 h for the removal of oligodendroglia and to ensure the complete removal of all nonastroglial cells. The attached cells were seeded onto new plates for further studies.
# Western blotting was conducted as described earlier (27,28) with modifications. Briefly, cells were scraped in double-distilled H20 and sodium dodecyl sulfate (SDS), electrophoresed on NuPAGE® Novex® 4-12% Bis-Tris gels (Invitrogen) and proteins transferred onto a nitrocellulose membrane (Bio-Rad) using the Thermo-Pierce Fast Semi-Dry Blotter. The membrane was then washed for 15 min in TBS plus Tween 20 (TBST) and blocked for 1 hr in TBST containing BSA. Next, membranes were incubated overnight at 4° C. under shaking conditions with the following 1° antibodies; TPP1 (1:250, Santa Cruz), β-actin (1:800; Abcam, Cambridge, Mass. The next day, membranes were washed in TBST for 1 hr, incubated in 2° antibodies against 1° antibody hosts (all 1:10,000; Jackson ImmunoResearch) for 1 hr at room temperature, washed for one more hour and visualized under the Odyssey® Infrared Imaging System (Li-COR, Lincoln, Nebr.).
# Protein blots were analyzed using ImageJ (NIH, Bethesda, Md.) and bands were normalized to their respective β-actin loading controls. Data are representative of the average fold change with respect to control for three independent experiments.
# TPP1 [2] = assay: Immunofluorescence for TPP1 in mouse primary astrocytes; assay type: cell-based
# Method: Astroglia were isolated from mixed glial cultures as described (17,18) according to the procedure of Giulian and Baker (19). Briefly, on day 9, the mixed glial cultures were washed three times with Dulbecco's modified Eagle's medium/F-12 and subjected to shaking at 240 rpm for 2 h at 37° C. on a rotary shaker to remove microglia. After 2 days, the shaking was repeated for 24 h for the removal of oligodendroglia and to ensure the complete removal of all nonastroglial cells. The attached cells were seeded onto new plates for further studies. Immunocytochemistry was performed as described earlier (25). Briefly, 8 well chamber slides containing mouse primary astrocytes, mouse neurons, human primary astrocytes or SH-SY5Y cells were cultured to 70-80% confluence were fixed with chilled Methanol (Fisher Scientific, Waltham, Mass.) overnight, followed by two brief rinses with filtered PBS. Samples were blocked with 2% BSA (Fisher Scientific) in PBS containing Tween 20 (Sigma) and Triton X-100 (Sigma) for 30 min and incubated at room temperature under shaking conditions for 2 hr in PBS containing the following anti-mouse primary antibodies: […] Santa Cruz Biotech, Santa Cruz, Calif.), GFAP, (1:100; Santa Cruz), and 3-tubulin (1:5000; Millipore). […] The samples were run in an EtOH and Xylene (Fisher) gradient, mounted and observed under Olympus BX41 fluorescence microscope.
compound,measurement,setting,value
Cc1ccc(C)c(OCCCC(C)(C)C(=O)O)c1 [gemfibrozil],"TPP1 levels (immunoblot, densitometric analysis)","TPP1 [1]; PPARα−/− astrocytes, 24 hrs",no significant increase
same,"TPP1 levels (Western blot, densitometric analysis)","TPP1 [1]; RXRα siRNA transfected astrocytes, gemfibrozil (10 μM), RA (0.5 μM) alone and in combination",almost no enhancement
same,TPP1 (immunofluorescence),"TPP1 [2]; PPARα−/− astrocytes compared to WT and PPARβ−/− cells, 25 μM gemfibrozil and 10 μM fenofibrate, 24 hrs",little or no increase
same,TPP1 protein (immunofluorescence),"TPP1 [2]; mouse primary astrocytes, different concentrations",dose dependant increase
